T/C data for 21 molecules are collected here from PubChem BioAssay AID328 (DTP/NCI, 2004).

Toxic doses and inconclusive results are not listed.

This assay deals with BDF1 mice, P388 leukemia ip, median survival T/C. Kind of assay: NCI In Vivo Anticancer Drug Screen. Data for tumor model P388 Leukemia (intraperitoneal) in B6D2F1 (BDF1) mice. The conditions noted are these: endpoint: median survival time, higher = longer survival. A digest of the protocol:
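Steps: implant the tumour, treat one group with compound and another with vehicle, record survival, then divide treated by control.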

The mark [1] stands for this setting: dose: 100.0 mg/kg/injection, schedule: Q01DX009 (ip), vehicle: saline.
The mark [2] stands for this setting: dose: 200.0 mg/kg/injection, schedule: Q01DX009 (ip), vehicle: saline.
Setting [3] is: dose: 400.0 mg/kg/injection, schedule: Q01DX009 (ip), vehicle: saline.
Where [4] appears, read: dose: 25.0 mg/kg/injection, schedule: Q01DX009 (ip), vehicle: saline with Tween-80.
Where [5] appears, read: dose: 50.0 mg/kg/injection, schedule: Q01DX009 (ip), vehicle: saline with Tween-80.
The mark [6] stands for this setting: dose: 100.0 mg/kg/injection, schedule: Q01DX009 (ip), vehicle: saline with Tween-80.
Setting [7] is: dose: 200.0 mg/kg/injection, schedule: Q01DX009 (ip), vehicle: saline with Tween-80.

For the molecule `Cc1ccccc1C1(c2ccccc2C)OC(=O)c2ccccc21`, the T/C runs as follows: (dose: 100.0 mg/kg/injection, schedule: Q01DX009 (ip), vehicle: Klucel (hydroxypropylcellulose) (HPC)) 90 % of control; (dose: 100.0 mg/kg/injection, schedule: Q04DX003 (ip), vehicle: Klucel (hydroxypropylcellulose) (HPC)) 95 % of control; (dose: 200.0 mg/kg/injection, schedule: Q01DX009 (ip), vehicle: Klucel (hydroxypropylcellulose) (HPC)) 104 % of control; (dose: 200.0 mg/kg/injection, schedule: Q04DX003 (ip), vehicle: Klucel (hydroxypropylcellulose) (HPC)) 91 % of control; (dose: 400.0 mg/kg/injection, schedule: Q01DX009 (ip), vehicle: Klucel (hydroxypropylcellulose) (HPC)) 90 % of control; (dose: 400.0 mg/kg/injection, schedule: Q04DX003 (ip), vehicle: Klucel (hydroxypropylcellulose) (HPC)) 87 % of control.

For `Nc1cccc(OCCCCCOc2cccc(N)c2)c1`, the T/C by setting is: (dose: 12.5 mg/kg/injection, schedule: Q01DX009 (ip), vehicle: Klucel (hydroxypropylcellulose) (HPC)) 96 % of control; (dose: 25.0 mg/kg/injection, schedule: Q01DX009 (ip), vehicle: Klucel (hydroxypropylcellulose) (HPC)) 108 % of control; (dose: 50.0 mg/kg/injection, schedule: Q01DX009 (ip), vehicle: Klucel (hydroxypropylcellulose) (HPC)) 94 % of control.

In the case of `CCOC(=O)CNC(=O)NC12CC3CC(CC(C3)C1)C2`, the T/C under setting [1] is 119 % of control, the T/C under setting [2] is 104 % of control and the T/C under setting [3] was 102 % of control.

On to `Cc1nc(N)nc2nc[nH]c12`, for which the T/C is, setting by setting: (dose: 12.5 mg/kg/injection, schedule: Q01DX009 (ip), vehicle: saline with Tween-80) 94 % of control; under setting [4], 96 % of control; under setting [5], 99 % of control; under setting [6], 96 % of control.

Turning to `C1CC[N-]CC1.[Cl][Pt+2][Cl].[NH-]C1CC1`, the T/C is 153 % of control (dose: 1.5 mg/kg/injection, schedule: Q01DX005 (ip), vehicle: distilled water + Tween-80); 150 % of control (dose: 1.5 mg/kg/injection, schedule: Q01DX005 (ip), vehicle: water); 164 % of control (dose: 3.0 mg/kg/injection, schedule: Q01DX005 (ip), vehicle: water); 157 % of control (dose: 6.0 mg/kg/injection, schedule: Q01DX005 (ip), vehicle: distilled water + Tween-80); 185 % of control (dose: 6.0 mg/kg/injection, schedule: Q01DX005 (ip), vehicle: water); 176 % of control (dose: 12.0 mg/kg/injection, schedule: Q01DX005 (ip), vehicle: distilled water + Tween-80). In addition, the T/C (dose: 12.0 mg/kg/injection, schedule: Q01DX005 (ip), vehicle: water) was 192 % of control.

Turning to `Nc1nc(=O)c2[nH]cnc2n1O`, the T/C is 90 % of control (dose: 13.75 mg/kg/injection, schedule: Q01DX009 (ip), vehicle: saline) and 95 % of control (dose: 27.5 mg/kg/injection, schedule: Q01DX009 (ip), vehicle: saline).

On to `Cc1cc(O)c(C(C)C)cc1S(=O)(=O)O` (tested in a mixture with another compound), for which the T/C is 95 % of control (dose: 37.5 mg/kg/injection, schedule: Q01DX009 (ip), vehicle: Klucel (hydroxypropylcellulose) (HPC)); 100 % of control under setting [5]; 95 % of control under setting [6]; 100 % of control (dose: 150.0 mg/kg/injection, schedule: Q01DX009 (ip), vehicle: Klucel (hydroxypropylcellulose) (HPC)); 150 % of control (dose: 150.0 mg/kg/injection, schedule: Q01DX009 (ip), vehicle: saline with Tween-80).

On to `O=C1NC(=O)N(c2ccccc2)C(=O)/C1=C/c1ccccc1`, for which the T/C (dose: 50.0 mg/kg/injection, schedule: Q01DX001 (ip), vehicle: saline sonified) was 110 % of control; the T/C (dose: 100.0 mg/kg/injection, schedule: Q01DX001 (ip), vehicle: saline sonified) was 105 % of control; the T/C (dose: 200.0 mg/kg/injection, schedule: Q01DX001 (ip), vehicle: saline sonified) is 100 % of control.

Consider `O=C1CCc2c(Br)cccc21`, for which the T/C reads like this: (dose: 100.0 mg/kg/injection, schedule: Q04DX003 (ip), vehicle: saline with Tween-80) 110 % of control; (dose: 200.0 mg/kg/injection, schedule: Q04DX003 (ip), vehicle: saline with Tween-80) 115 % of control; (dose: 400.0 mg/kg/injection, schedule: Q04DX003 (ip), vehicle: saline with Tween-80) 110 % of control.

For the molecule `C=C(C)C(=O)OC1CC2(C)OC2CC(OC(C)=O)/C(C)=C/C2OC(=O)C(=C)C21` (configuration not stated), the T/C (dose: 11.25 mg/kg/injection, schedule: Q01DX009 (ip), vehicle: saline) is 118 % of control.

Take `COc1cccc(C)c1NC1=NCCO1`: the T/C (dose: 1.56 mg/kg/injection, schedule: Q04DX003 (ip), vehicle: saline with Tween-80) was 117 % of control.

`O=C(NC(=O)c1c(F)cccc1F)Nc1nc2ccccc2s1`: the T/C under setting [4] was 93 % of control and the T/C under setting [6] was 93 % of control.

Consider `CN(C)c1ccc(/C=C/c2ccc3ccccc3[n+]2[O-])cc1`, for which the T/C reads like this: under setting [5], 99 % of control; under setting [6], 97 % of control; under setting [7], 117 % of control.

Consider `CN(C)c1nn2c(-c3ccccc3)nnc2s1`, for which the T/C runs as follows: under setting [1], 86 % of control; under setting [2], 90 % of control; under setting [3], 100 % of control.

As for `CC1(C)N=C(N)N=C(N)N1c1ccc2ccccc2c1`, the T/C is 120 % of control (dose: 12.5 mg/kg/injection, schedule: Q01DX009 (ip), vehicle: saline); 160 % of control (dose: 50.0 mg/kg/injection, schedule: Q01DX009 (ip), vehicle: saline); 100 % of control (dose: 50.0 mg/kg/injection, schedule: Q04DX003 (ip), vehicle: saline).

Turning to `CC(Cc1cccs1)N=Cc1cc(Br)ccc1O` (configuration not stated), the T/C reads like this: (dose: 100.0 mg/kg/injection, schedule: Q01DX001 (ip), vehicle: saline with Tween-80) 100 % of control; (dose: 200.0 mg/kg/injection, schedule: Q01DX001 (ip), vehicle: saline with Tween-80) 111 % of control; (dose: 400.0 mg/kg/injection, schedule: Q01DX001 (ip), vehicle: saline with Tween-80) 109 % of control.

On to `CCP(=Nc1cc(C(c2ccccc2)(c2ccccc2)c2ccccc2)cc(C(C)(C)C)c1O)(c1ccccc1)c1ccccc1`, for which the T/C is, setting by setting: under setting [5], 107 % of control; under setting [6], 116 % of control; under setting [7], 89 % of control.

`CCOC1NC(C)(C)CO1` (configuration not stated): the T/C runs as follows: (dose: 100.0 mg/kg/injection, schedule: Q04DX003 (ip), vehicle: saline) 100 % of control; (dose: 200.0 mg/kg/injection, schedule: Q04DX003 (ip), vehicle: saline) 91 % of control; (dose: 400.0 mg/kg/injection, schedule: Q04DX003 (ip), vehicle: saline) 95 % of control.

As for `Nc1nc(N)c(Cl)c(Nc2cccc(Cl)c2)n1`, the T/C is, setting by setting: under setting [5], 102 % of control; under setting [6], 103 % of control; under setting [7], 105 % of control.

As to `Cc1ccc(S(=O)(=O)N(c2ccccc2)c2ccccc2)cc1`, the T/C is 96 % of control (dose: 87.5 mg/kg/injection, schedule: Q01DX009 (ip), vehicle: saline with Tween-80); 96 % of control (dose: 175.0 mg/kg/injection, schedule: Q01DX009 (ip), vehicle: saline with Tween-80); 101 % of control (dose: 350.0 mg/kg/injection, schedule: Q01DX009 (ip), vehicle: saline with Tween-80).

Take `CCOC(=O)c1c(N)sc2c1CCCCC2`: the T/C under setting [6] is 100 % of control; the T/C under setting [7] is 95 % of control; the T/C (dose: 400.0 mg/kg/injection, schedule: Q01DX009 (ip), vehicle: saline with Tween-80) is 110 % of control.
